Bounds are passed on as bounds.

By Ki is commonly meant a measure of affinity in units of concentration, obtained from inhibition or displacement. A higher Ki goes with weaker binding.

Chain of 5-hydroxytryptamine receptor 6 (P50406 whole entry): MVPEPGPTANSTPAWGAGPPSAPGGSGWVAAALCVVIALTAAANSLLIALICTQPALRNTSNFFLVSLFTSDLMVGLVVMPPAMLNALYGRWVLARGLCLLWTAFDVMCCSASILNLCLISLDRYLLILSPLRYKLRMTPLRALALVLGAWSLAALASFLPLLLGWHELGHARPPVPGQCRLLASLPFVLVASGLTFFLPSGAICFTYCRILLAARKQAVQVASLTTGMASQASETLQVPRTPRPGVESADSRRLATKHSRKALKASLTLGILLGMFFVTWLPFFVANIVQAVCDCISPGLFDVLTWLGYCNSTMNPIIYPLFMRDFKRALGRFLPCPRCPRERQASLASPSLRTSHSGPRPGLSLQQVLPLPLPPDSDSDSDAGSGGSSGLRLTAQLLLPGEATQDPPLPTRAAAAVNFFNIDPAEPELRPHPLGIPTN

For the first assay, the target named is 5-hydroxytryptamine receptor 4 (Mus musculus, UniProt P97288).
Chain of 5-hydroxytryptamine receptor 4 (Mus musculus, UniProt P97288) (P97288 whole entry): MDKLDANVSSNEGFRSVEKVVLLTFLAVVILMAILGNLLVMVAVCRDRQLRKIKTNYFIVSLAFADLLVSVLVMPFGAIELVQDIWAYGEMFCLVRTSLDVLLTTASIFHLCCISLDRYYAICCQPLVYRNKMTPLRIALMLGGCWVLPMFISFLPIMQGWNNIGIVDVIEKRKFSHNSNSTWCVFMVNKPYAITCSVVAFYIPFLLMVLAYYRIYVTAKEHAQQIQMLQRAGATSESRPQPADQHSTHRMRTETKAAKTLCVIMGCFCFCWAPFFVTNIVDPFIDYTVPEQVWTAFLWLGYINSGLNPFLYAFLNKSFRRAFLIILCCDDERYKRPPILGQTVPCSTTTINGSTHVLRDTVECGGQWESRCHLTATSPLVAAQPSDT
In the case of `NCCc1c[nH]c2ccccc12` [1H-indole-3-ethanamine], the Ki is above 10000 nM.

Another assay has as its target 5-hydroxytryptamine receptor 6 (Homo sapiens, UniProt P50406).
`CN1C[C@@H](NS(=O)(=O)N(C)C)C[C@@H]2c3cccc4c3c(cn4C)C[C@H]21` [MESULERGINE] gave a Ki of 1720 nM.

Turning to `CN1C[C@H](CNC(=O)OCc2ccccc2)C[C@@H]2c3cccc4c3c(cn4C)C[C@H]21` [METERGOLINE], the Ki was found to be 61 nM.

`CN1CC(C(=O)N[C@]2(C)O[C@@]3(O)C4CCCN4C(=O)[C@H](Cc4ccccc4)N3C2=O)CC2c3cccc4[nH]cc(c34)CC21` (stereo partly drawn) [7-Methyl-4,6,6a,7,8,9,10,10a-octahydro-indolo[4,3-fg]quinoline-9-carboxylic acid ((2R,5S,10bS)-5-benzyl-10b-hydroxy-2-methyl-3,6-dioxo-octahydro-oxazolo[3,2-a]pyrrolo[2,1-c]pyrazin-2-yl)-amide] gave a Ki of 5.4 nM.

On to `CCN(CC)C(=O)[C@@H]1C=C2c3cccc4[nH]c(Br)c(c34)C[C@H]2N(C)C1` [LSD,2-Bromo], for which the Ki was 17.1 nM.

Take `NCCc1c[nH]c2ccc(C(N)=O)cc12` [[3H]-5-carboxamidotryptamine]: the affinity corresponds to a Ki of 253 nM.

With `CC[C@@H](CO)NC(=O)[C@@H]1C=C2c3cccc4c3c(cn4C)C[C@H]2N(C)C1`, the Ki turned out to be 372 nM.

For `Cc1nc2sccn2c(=O)c1CCN1CCC(=C(c2ccc(F)cc2)c2ccc(F)cc2)CC1`, the Ki was 16 nM.

As for `c1ccc2c(N3CCNCC3)cccc2c1`, the Ki is 104 nM.

The target in another assay is 5-hydroxytryptamine receptor 4 (Rattus norvegicus, UniProt Q62758).
Chain of 5-hydroxytryptamine receptor 4 (Rattus norvegicus, UniProt Q62758) (Q62758 whole entry): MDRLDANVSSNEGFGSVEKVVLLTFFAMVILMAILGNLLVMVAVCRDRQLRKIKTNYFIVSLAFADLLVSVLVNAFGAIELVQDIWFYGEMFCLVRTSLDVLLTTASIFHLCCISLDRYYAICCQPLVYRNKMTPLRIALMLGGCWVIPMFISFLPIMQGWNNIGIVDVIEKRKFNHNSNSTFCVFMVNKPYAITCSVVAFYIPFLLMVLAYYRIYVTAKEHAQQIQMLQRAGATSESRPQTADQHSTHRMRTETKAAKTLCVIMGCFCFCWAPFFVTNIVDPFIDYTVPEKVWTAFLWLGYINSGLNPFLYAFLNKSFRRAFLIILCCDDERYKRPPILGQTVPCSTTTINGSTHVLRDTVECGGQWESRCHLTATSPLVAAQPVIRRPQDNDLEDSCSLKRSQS
Take `COc1ccc2[nH]cc(CCN)c2c1` [tryptamine, 5-Methoxy]: the Ki was found to be 316 nM.

For `COc1cc(N)c(Cl)cc1C(=O)NC1CN2CCC1CC2` (stereo unspecified) [ZACOPRIDE,R], the Ki was determined as 316 nM.

(Values after BindingDB's records for PubMed 8226867 (Synaptic Pharmaceutical, 1993).)
